From ChEMBL document CHEMBL1141244, “Sulfonamide chalcone as a new class of alpha-glucosidase inhibitors” (Bioorg Med Chem Lett, 2005)
The source made the active and inactive calls. The rule behind the calls is not given here.

Experiments:
[1] = Inhibitory activity against baker's yeast alpha glucosidase; set-up: species or system Saccharomyces cerevisiae
Alpha-amylase = Alpha-amylase (Bacillus licheniformis, UniProt P06278); test: Inhibitory activity against Bacillus licheniformis alpha amylase
Sequence of Alpha-amylase (P06278 whole entry): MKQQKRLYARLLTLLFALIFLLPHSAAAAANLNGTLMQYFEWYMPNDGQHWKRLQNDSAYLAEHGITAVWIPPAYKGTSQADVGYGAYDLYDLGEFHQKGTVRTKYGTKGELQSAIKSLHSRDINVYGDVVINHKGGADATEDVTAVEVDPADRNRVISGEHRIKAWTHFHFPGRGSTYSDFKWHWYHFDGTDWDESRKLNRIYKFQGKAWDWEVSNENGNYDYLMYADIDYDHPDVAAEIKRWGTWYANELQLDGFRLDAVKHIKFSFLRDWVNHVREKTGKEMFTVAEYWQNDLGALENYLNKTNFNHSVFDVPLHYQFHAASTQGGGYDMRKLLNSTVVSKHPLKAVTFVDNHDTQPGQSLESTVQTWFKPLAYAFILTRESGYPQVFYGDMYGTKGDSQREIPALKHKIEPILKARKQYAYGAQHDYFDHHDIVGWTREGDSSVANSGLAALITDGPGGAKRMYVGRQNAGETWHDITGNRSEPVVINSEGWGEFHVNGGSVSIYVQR

Beta-amylase = Beta-amylase (Hordeum vulgare, UniProt P16098); test: Inhibitory activity against barley beta amylase
Sequence of Beta-amylase (P16098 whole entry): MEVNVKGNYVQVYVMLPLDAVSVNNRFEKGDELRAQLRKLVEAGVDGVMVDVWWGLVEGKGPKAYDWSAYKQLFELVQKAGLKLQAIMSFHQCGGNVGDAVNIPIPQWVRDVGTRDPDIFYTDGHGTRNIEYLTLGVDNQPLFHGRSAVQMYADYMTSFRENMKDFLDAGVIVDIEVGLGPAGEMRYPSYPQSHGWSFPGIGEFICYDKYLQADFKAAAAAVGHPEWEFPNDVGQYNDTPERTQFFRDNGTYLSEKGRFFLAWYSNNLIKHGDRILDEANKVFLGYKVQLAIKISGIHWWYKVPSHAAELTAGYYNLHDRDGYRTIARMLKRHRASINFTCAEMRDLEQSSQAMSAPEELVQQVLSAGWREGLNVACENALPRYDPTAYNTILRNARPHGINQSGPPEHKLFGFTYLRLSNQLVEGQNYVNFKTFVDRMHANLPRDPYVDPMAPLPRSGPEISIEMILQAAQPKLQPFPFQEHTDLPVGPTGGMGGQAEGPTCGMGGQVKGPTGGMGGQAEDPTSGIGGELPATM

Saccharomyces cerevisiae = test: Inhibitory activity against baker's yeast alpha glucosidase at 200 uM
[2] = biological target: Alpha-amylase (Bacillus licheniformis) (UniProt P06278); test: Inhibitory activity against Bacillus licheniformis alpha amylase at 200 uM
Sequence of Alpha-amylase (Bacillus licheniformis) (P06278 whole entry): as the sequence (P06278 whole entry) above

[3] = biological target: Beta-amylase (Hordeum vulgare) (UniProt P16098); test: Inhibitory activity against barley beta amylase at 200 uM
Sequence of Beta-amylase (Hordeum vulgare) (P16098 whole entry): as the sequence (P16098 whole entry) above

Compound	IC50 [1]	Activity (Saccharomyces cerevisiae)	Activity [2]	Activity [3]	also measured
Nc1cccc(C(=O)/C=C/c2ccc(O)cc2)c1	> 200 µM				IC50 (Alpha-amylase): Not Active; IC50 (Beta-amylase; read-out: IC50): 206 µM
Nc1ccc(C(=O)/C=C/c2ccc(O)cc2)cc1	41 µM				IC50 (Alpha-amylase; read-out: IC50): 269 µM; IC50 (Beta-amylase): Not Active
O=C(/C=C/c1ccc(O)cc1)c1ccccc1		inactive	inactive	inactive	
Cc1ccc(S(=O)(=O)Nc2cccc(C(=O)/C=C/c3ccc(O)c(O)c3)c2)cc1	15.6 µM				Ki [1]: 9.25 µM; IC50 (Alpha-amylase; read-out: IC50): 16.8 µM; IC50 (Beta-amylase; read-out: IC50): 24.8 µM
O=c1c(O)c(-c2cc(O)c(O)c(O)c2)oc2cc(O)cc(O)c12		inactive	inactive	inactive	
Oc1cc(O)c2c(c1)O[C@H](c1ccc(O)c(O)c1)[C@@H](O)C2		inactive	inactive	inactive	
Cc1ccc(S(=O)(=O)Nc2ccc(C(=O)/C=C/c3ccc(O)c(O)c3)cc2)cc1	0.4 µM				Ki [1]: 0.24 µM; IC50 (Alpha-amylase; read-out: IC50): 194 µM; IC50 (Beta-amylase; read-out: IC50): 65 µM
O=C(/C=C/c1cccc(O)c1)c1ccc(O)cc1		inactive	inactive	inactive	
O=C(/C=C/c1ccc(O)cc1)c1ccc(O)cc1		inactive	inactive	inactive	
Oc1cc(O)c2c(c1)O[C@@H](c1ccc(O)c(O)c1)[C@H](O)C2		inactive	inactive	inactive	
O=c1c(O)c(-c2ccc(O)c(O)c2)oc2cc(O)cc(O)c12		inactive	inactive	inactive	
O=C(/C=C/c1ccccc1O)c1ccccc1		inactive	inactive	inactive	
C[C@H]1O[C@H](O[C@H]2[C@H](O)[C@@H](O)[C@@H](O[C@H]3[C@H](O)[C@@H](O)C(O)O[C@@H]3CO)O[C@@H]2CO)[C@H](O)[C@@H](O)[C@@H]1N[C@H]1C=C(CO)[C@@H](O)[C@H](O)[C@H]1O (stereo not given in full) [ACARBOSE]	60.8 µM				
O=C(/C=C/c1cccc(O)c1O)c1ccccc1		inactive	inactive	inactive	
Cc1ccc(S(=O)(=O)Nc2ccc(C(=O)/C=C/c3ccc(O)cc3)cc2)cc1	0.98 µM				Ki [1]: 0.58 µM; IC50 (Alpha-amylase; read-out: IC50): 87.8 µM; IC50 (Beta-amylase; read-out: IC50): 247 µM
Nc1cccc(C(=O)/C=C/c2ccc(O)c(O)c2)c1	> 200 µM				IC50 (Alpha-amylase): Not Active; IC50 (Beta-amylase): Not Active
O=C(/C=C/c1cc(O)ccc1O)c1ccccc1		inactive	inactive	inactive	
Nc1ccc(C(=O)/C=C/c2ccc(O)c(O)c2)cc1	62.1 µM				IC50 (Alpha-amylase): Not Active; IC50 (Beta-amylase; read-out: IC50): 127 µM
O=C(/C=C/c1ccc(O)cc1O)c1ccccc1		inactive	inactive	inactive	
O=C(/C=C/c1ccc(O)c(O)c1)c1ccccc1		inactive	inactive	inactive	
Cc1ccc(S(=O)(=O)Nc2cccc(C(=O)/C=C/c3ccc(O)cc3)c2)cc1	12.4 µM				Ki [1]: 7.38 µM; IC50 (Alpha-amylase; read-out: IC50): 37.3 µM; IC50 (Beta-amylase; read-out: IC50): 201 µM
